Several values for one entry are separate records, joined by “and”; a condition that tells them apart may be missing. Identical values can stand only once.
Experiments:
[1] = MTT assay for cell viability; type: cell-based, mouse; conditions: mouse, RAW264.7 macrophage cells, 24 h, RAW264.7 cells
Method: The RAW 264.7 mouse macrophage cell line was obtained from the China Cell Line Bank (Beijing, China). Cells were cultured in complete medium (DMEM supplemented with 10% heat-inactivated FBS, 3 mM glutamine and antibiotics (100 U/mL penicillin and 100 U/mL streptomycin)) at 37 °C in a humidified incubator containing 5% CO2 and 95% air. […]
Cell viability studies induced by synthesised compounds were evaluated by 3-(4,5-dimethylthiazol-2-yl)-2,5-diphenyltetrazolium bromide (MTT) assay. RAW264.7 macrophages were seeded in 96-well plates at a density of 5 × 10^5 cells/mL in complete medium and incubated for 24 h (100 µL/well). Then the cells were treated with different concentrations of synthesised compounds for 24 h. 150 µL MTT (5 g/L in PBS) was added to each well and the cells were further incubated for 4 h. The supernatant was removed and the cells were lysed with 150 µL/well DMSO. The optical density was measured at 570 nm on a microplate reader (Thermo Scientific, MA, USA).

[2] = system: LPS-induced NO production in RAW264.7 macrophages; assay: Inhibition of LPS-induced NO production (Griess); type: cell-based, mouse; conditions: 10 µM
Method: The RAW 264.7 mouse macrophage cell line was obtained from the China Cell Line Bank (Beijing, China). Cells were cultured in complete medium (DMEM supplemented with 10% heat-inactivated FBS, 3 mM glutamine and antibiotics (100 U/mL penicillin and 100 U/mL streptomycin)) at 37 °C in a humidified incubator containing 5% CO2 and 95% air. Cells were treated with various concentrations of synthesised compounds for 30 min followed by stimulation with LPS ([…]).
Nitrite, a stable product of nitric oxide, was used to assess NO production. To study the effects of the isolated compounds on NO production, RAW264.7 cells were plated at 1 × 10^5 cells/well in a 96-well microplate and incubated overnight. The cells were pre-treated with various concentrations of the test compounds (3, 7.5, 10, 15, 30 or 100 µM) and further co-cultured with 1 µg/mL LPS for 24 h. Un-pre-treated and un-stimulated RAW 264.7 cells were conducted as the blank control group. At different time points, the supernatant (50 µL) was assayed with NO assay kit. The culture supernatant (50 µL) was mixed with an equal volume of the Griess reagent (1% sulphanilamide, 0.1% N-[1-naphthy] ethylenediamine dihydrochloride) and NO production were determined at 540 nm with an ELISAplate reader.

[3] = system: carrageenan-induced paw oedema; assay: Carrageenan-induced paw oedema model; type: in vivo, rats; conditions: 25 mg/kg p.o., n = 4
Text: The animal procedures were in strict accordance with the National Institutes of Healthy Guidelines for the Care and Use of Laboratory Animals (NIH Publication No. 85-23, revised 1996) and were approved by the Institutional Animal Care and Utilisation Committee of Yanbian University. Male albino rats weighing 280–300 gwere obtained from Animal Department of Yanbian University . They were kept in the animal house under standard condition of light and temperature with free access to food and water. The animals were randomly divided into five groups (control, D1, 6p, ibuprofen and celecoxib group) The groups with D1, 6p, ibuprofen and celecoxib were administered oral administration (p.o.) 25 mg/kg in a vehicle of 0.5% methylcellulose, respectively. The negative control group was treated with the same vehicle (0.5% methylcellulose). A solution of carrageenan (0.1 ml, 1.0% w/v in 0.9% of normal saline) was injected into the subplanter region of the left hind paw under light ether anaesthesia 1 h after oral administration (p.o.) of the test compound (at a dose level of 25 mg/kg body weight). The paw volume was measured at hourly interval for 5 h (0, 1, 3 and 5 h) and the percent inhibition of oedema was calculated using formula: %Inhibition=(Vt−Vo)control−(Vt−Vo)tested compound /(Vt−Vo)control×100 where, • Vo = volume of oedema at zero time interval. • Vt = volume of oedema at specific time interval.

[4] = system: gastric mucosa (stomach lesions); assay: Ulcerogenic effect; type: in vivo; conditions: 25 mg/kg p.o. once a day for three days, rats
Method: The lead compound D1 and the newly synthesised compound 6p were subjected to in vivo testing to measure their ulcerogenic effect in comparison to celecoxib and ibuprofen. Male albino rats (220–250 g) divided into 5 groups (control, D1, 6p, ibuprofen and celecoxib group) of five rats each. The groups with D1, 6p, ibuprofen, and celecoxib were administered oral administration (p.o.) 25 mg/kg in a vehicle of 0.5% methylcellulose, respectively. The negative control group was treated with the same vehicle (0.5% methylcellulose). All groups were orally administered once a day for three consecutive days. Animals were sacrificed by diethyl ether 6 h after the last dose and the stomach was removed. An opening at the greater curvature was made and the stomach was cleaned by washing with cold saline and inspected with a three-time magnifying lens for any evidence of hyperaemia, haemorrhage, definite haemorrhagic erosion, or ulcer. An arbitrary scale was used to calculate the ulcer index which indicates the severity of the stomach lesions The % ulceration for each group was calculated as follows: % Ulceration = Number of animals bearing ulcer in a group/Total number of animals in the same group ×100.

Row | SMILES | viability at 24 h, 30 µM [1] | melting point | viability at 24 h, 10 µM [1] | also measured
1 | CCCCn1c(=O)c2nnc(C(N)=O)n2c2ccccc21 [6a, 5-butyl-4-oxo-4,5-dihydro-[1,2, 4]triazolo[4,3-a]quinoxaline-1-carboxamide] | 92.3 ± 1.53% | 262 to 264 °C |  | 
2 | CCCCCn1c(=O)c2nnc(C(N)=O)n2c2ccccc21 [6b, 5-pentyl-4-oxo-4,5-dihydro-[1,2, 4]triazolo[4,3-a]quinoxaline-1-carboxamide] | 98 ± 1.1% | 232 to 234 °C |  | 
3 | CCCCCCn1c(=O)c2nnc(C(N)=O)n2c2ccccc21 [6c, 5-hexyl-4-oxo-4,5-dihydro-[1,2, 4]triazolo[4,3-a]quinoxaline-1-carboxamide] | 99.11 ± 0.69% | 239 to 241 °C |  | 
4 | CCCCCCCn1c(=O)c2nnc(C(N)=O)n2c2ccccc21 [6d, 5-heptyl-4-oxo-4,5-dihydro-[1,2, 4]triazolo[4,3-a]quinoxaline-1-carboxamide] | 81 ± 1.1% | 231 to 233 °C |  | 
5 | CCCCCCCCn1c(=O)c2nnc(C(N)=O)n2c2ccccc21 [6e, 5-octyl-4-oxo-4,5-dihydro-[1,2, 4]triazolo[4,3-a]quinoxaline-1-carboxamide] | 99.5 ± 2.3% | 230 to 232 °C |  | anti-inflammatory activity (NO) within 5-alkyl derivatives 6a–6f ([2]; SAR ranking): the most active
6 | CCCCCCCCCn1c(=O)c2nnc(C(N)=O)n2c2ccccc21 [6f, 5-nonyl-4-oxo-4,5-dihydro-[1,2, 4]triazolo[4,3-a]quinoxaline-1-carboxamide] | 60 ± 3.4% | 236 to 238 °C | 99.2 ± 1.65% | 
7 | NC(=O)c1nnc2c(=O)n(Cc3ccccc3)c3ccccc3n12 [6g, 5-benzyl-4-oxo-4,5-dihydro-[1,2, 4]triazolo[4,3-a]quinoxaline-1-carboxamide] | 85 ± 1% | 268 to 270 °C |  | 
8 | NC(=O)c1nnc2c(=O)n(Cc3ccccc3F)c3ccccc3n12 [6h, 5-(2-fluorobenzyl)-4-oxo-4,5-dihydro-[1,2, 4]triazolo[4,3-a]quinoxaline-1-carboxamide] | 66.7 ± 1.33% | 273 to 275 °C | 98.5 ± 1.76% | 
9 | NC(=O)c1nnc2c(=O)n(Cc3cccc(F)c3)c3ccccc3n12 [6i, 5–(3-fluorobenzyl)-4-oxo-4,5-dihydro-[1,2, 4]triazolo[4,3-a]quinoxaline-1-carboxamide] | 59.3 ± 2.52% | 276 to 278 °C | 99.5 ± 4.17% | 
10 | NC(=O)c1nnc2c(=O)n(Cc3ccc(F)cc3)c3ccccc3n12 [6j, 5-(4-fluorobenzyl)-4-oxo-4,5-dihydro-[1,2, 4]triazolo[4,3-a]quinoxaline-1-carboxamide] | 48 ± 3% | 274 to 276 °C | 73.5 ± 2.27% | 
11 | NC(=O)c1nnc2c(=O)n(Cc3ccccc3Cl)c3ccccc3n12 [6k, 5-(2-chlorobenzyl)-4-oxo-4,5-dihydro-[1,2, 4]triazolo[4,3-a]quinoxaline-1-carboxamide] | 46.3 ± 2.89% | 278 to 280 °C | 74.6 ± 1.38% | 
12 | NC(=O)c1nnc2c(=O)n(Cc3cccc(Cl)c3)c3ccccc3n12 [6l, 5-(3-chlorobenzyl)-4-oxo-4,5-dihydro-[1,2, 4]triazolo[4,3-a]quinoxaline-1-carboxamide] | 51.7 ± 2.12% | 269 to 271 °C | 87.9 ± 5.18% | 
13 | NC(=O)c1nnc2c(=O)n(Cc3ccc(Cl)cc3)c3ccccc3n12 [6m, 5-(4-chlorobenzyl)-4-oxo-4,5-dihydro-[1,2, 4]triazolo[4,3-a]quinoxaline-1-carboxamide] | 44.7 ± 3.06% | 282 to 284 °C | 82.2 ± 1.74% | 
14 | COc1cccc(Cn2c(=O)c3nnc(C(N)=O)n3c3ccccc32)c1 [6n, 5-(3-methoxybenzyl)-4-oxo-4,5-dihydro-[1,2, 4]triazolo[4,3-a]quinoxaline-1-carboxamide] | 93.33 ± 0.58% | 266 to 268 °C |  | 
15 | COc1ccc(Cn2c(=O)c3nnc(C(N)=O)n3c3ccccc32)cc1 [6o, 5-(4-methoxybenzyl)-4-oxo-4,5-dihydro-[1,2, 4]triazolo[4,3-a]quinoxaline-1-carboamide] | 80.1 ± 1% | 264 to 266 °C |  | 
16 | NC(=O)c1nnc2c(=O)n(Cc3ccc(Cl)cc3Cl)c3ccccc3n12 [6q, 5-(2,4-dichlorobenzyl)-4-oxo-4,5-dihydro-[1,2, 4]triazolo[4,3-a]quinoxaline-1-carboxamide] | 56.7 ± 1.34% | 266 to 268 °C | 84.7 ± 6.49% | 
17 | NC(=O)c1nnc2c(=O)n(Cc3cccc(C(F)(F)F)c3)c3ccccc3n12 [6r, 5-(3-(Trifluoromethyl)benzyl)-4-oxo-4,5-dihydro-[1,2, 4]triazolo[4,3-a]quinox-aline-1-carboxamide] | 99.3 ± 0.6% | 262 to 264 °C |  | 
18 | NC(=O)c1nnc2c(=O)n(Cc3ccc([N+](=O)[O-])cc3)c3ccccc3n12 [6s, 5-(4-nitrobenzyl)-4-oxo-4,5-dihydro-[1,2, 4]triazolo[4,3-a]quinoxaline-1-carb-oxamide] | 80.1 ± 1.34% | 273 to 275 °C |  | 
19 | N#Cc1ccc(Cn2c(=O)c3nnc(C(N)=O)n3c3ccccc32)cc1 [6t, 5-(4-cyanobenzyl)-4-oxo-4,5-dihydro-[1,2, 4]triazolo[4,3-a]quinoxaline-1-carboxamide] | 90.3 ± 1.21% | 298 to 300 °C |  | 
20 | Cc1ccc(-c2cc(C(F)(F)F)nn2-c2ccc(S(N)(=O)=O)cc2)cc1 [Celecoxib] |  |  |  | % of oedema inhibition (% mean ± SD) ([3]; 1 h): 48.09 ± 5.33%; % of oedema inhibition (% mean ± SD) ([3]; 3 h, 25 mg/kg): 58.34 ± 4.08%; % of oedema inhibition (% mean ± SD) ([3]; 3 h, listed as celecoxib, 25 mg/kg): 58.34%; % of oedema inhibition (% mean ± SD) ([3]; 5 h): 41.92 ± 2.05%
21 | Cc1cccc(Oc2nn3c(C(N)=O)nnc3c3ccccc23)c1 [D1] | 96.3 ± 1.72% |  |  | % ulceration [4]: 20%; inhibition at 10 µM ([2]; Mus musculus, RAW264.7, LPS 1 µg/mL, 24 h, read-out: NO inhibitory activity (% inhibition)): 10.3%; % of oedema inhibition (% mean ± SD) ([3]; 1 h): 38.26 ± 2.82%; % of oedema inhibition (% mean ± SD) ([3]; 3 h, 25 mg/kg): 42.81% and 42.81 ± 2.11%; % of oedema inhibition (% mean ± SD) ([3]; 5 h): 28.71 ± 2.92%
22 | CC(C)Cc1ccc(C(C)C(=O)O)cc1 (stereo not shown) [Ibuprofen] |  |  |  | % of oedema inhibition (% mean ± SD) ([3]; 1 h): 31.92 ± 5.76%; % of oedema inhibition (% mean ± SD) ([3]; 3 h, 25 mg/kg): 39.30 ± 4.86%; % of oedema inhibition (% mean ± SD) ([3]; 3 h, listed as ibuprofen, 25 mg/kg): 39.30%; % of oedema inhibition (% mean ± SD) ([3]; 5 h): 25.29 ± 3.43%
